Source: article PMC12196476, “New Nitrogen-, Oxygen-, and Sulfur-Containing Heterocyclic Compounds as Anti-Colon Cancer Agents: Synthesis, Multitargeted Evaluations, Molecular Docking Simulations and ADMET Predictions” (Pharmaceuticals, 2025)

How the values were obtained:
[1] = DPPH radical scavenging assay; details: three independent experiments; read-out: Mean IC50 (mM) for initial DPPH radicals ± SD
[2] = tested on: HCT-116 colon carcinoma cells; assay: Cell viability, LDH release assay, HCT-116; details: Homo sapiens, HCT-116, 48 h
LoVo cells [3] = assay: Cell cycle assay (PI flow cytometry), LoVo; type: cell-based, human; details: 30 µg/mL, 48 h, mean of n = 2 (Figure 1E); untreated control 11.51 ± 1.24%
Protocol: Cell proliferation depends on orderly progression through the phases of the cell cycle (G1−S−G2−M). Cytotoxic agents can impair the integrity of DNA, leading to checkpoint arrest at G1/S or G2/M, which subsequently blocks proliferation. To evaluate the impact of compound 3d on cell cycle distribution, colon carcinoma cells were treated with 30 µg/mL of 3d for 48 h, followed by DNA content analysis using flow cytometry. […] In contrast, in HCT-116 cells, 3d caused an accumulation in the G1 phase, reaching 60.17 ± 1.44% versus 47.37 ± 1.68% in untreated cells (Figure 1E). […]
medium served used as negative and positive controls, respectively. Percentages of viable cells […]
wells (final concentration of 100 μg/mL), compared to the negative control, and expressed as mean value (%) ± SD from two replicates. Graphing dose-response curves representing the compound […]
(HUVECs) at final concentration of 100 μg/mL . HUVECs were grown in Dulbecco’s Modified Eagle’s Medium supplemented with 10% FBS, 2 mM glutamine (Sigma Aldrich), 100 units/mL penicillin and […] streptomycin (Life Technologies; Paisley, UK).
S3.2.5. Cell cycle assay.
HCT-116 and LoVo cultures upon treatment with compound 3d. HCT-116 and LoVo carcinoma […]
μg/mL for 48 h. […] Then, cells […]
(§1) of stained cancerous cells were determined. […]
carcinoma cells treated with compound 3d was assessed using the TMRE Mitochondrial Membrane

LoVo cells [4] = assay: Annexin V-FITC/PI apoptosis assay, LoVo; type: cell-based, human; details: 30 µg/mL, 48 h, Figure 3B plot
Protocol: Translocation of phosphatidylserine (PS) residues on the cell surface is an early apoptosis indicator, detectable through flow cytometric analysis and using double staining with propidium iodide (PI) dye and fluorescein isothiocyanate (FITC)-conjugated Annexin V (Annexin V-FITC). […]
μg/mL for 48 h. […]
S3.2.6. Annexin-V-FITC assay. […]
treatment with compound 3d. HCT-116 and LoVo cells were treated with vehicle (DMSO) and 3d […]
in Annexin-V binding buffer (BioVision Research Products, USA). The cells were then stained with Annexin V-FITC and propidium iodide (PI). Using the FITC signal detector (usually FL1) for […]
as §1

- IC50 [1]: 0.164 ± 0.008 mM
- IC50 ([2]; read-out: Mean IC50 Values in µM ± SD, HCT-116 cells): 161 µM
Compound: COc1cc(/C=N/c2ncnc3sc4c(c23)CCCC4)cc(OC)c1OC [Compound 3d, (E)-N-(5,6,7,8-Tetrahydrobenzo[4,5]thieno[2,3-d]pyrimidin-4-yl)-1-(3,4,5-trimethoxyphenyl)methanimine]
- viability at 100 µg/mL ([2]; read-out: Mean % of viable cells ± SD, HCT-116, 100 µg/mL, 48 h, LDH release assay): < 29%
- % of Cell population, LoVo: %G2/M (LoVo cells [3]): 24.06 ± 1.32%
- Necrotic population (Annexin-V−/PI+), LoVo (LoVo cells [4]): 4.14%
- Late apoptotic cells (both Annexin-V and PI positive), LoVo (LoVo cells [4]; control 0.09%): 9.92%
- Early apoptotic cells (Annexin V-FITC positive and PI negative), LoVo (LoVo cells [4]; control 0.44%): 17.12%
